Reference: US8762074B2, “Optimizing culture medium for CD34<+> hematopoietic cell expansion” (Sino-Cell Technologies, priority 2004, dated 2014)

Tests used:
WBC = assay: Ex vivo expansion culture of UCB CD133+/CD34+ cells, WBC growth (cell density at day 7); type: cell-based, human; details: for regression coefficient of first-order model, Eq. (6): from Table 7, IMDM containing TISF; for regression coefficient of first-order model, Eq. (8): from Table 8, cytokine-containing medium; for effect on WBC growth: per Eq. (2), serum-containing IMDM; for regression coefficient of first-order model, Eq. (4): from Table 5, serum-containing medium, +1 = 10 ng/ml
Method: (§1) The UCB of full-termed healthy newborns, included uneventful vaginal births or cesarean sections, was harvested with a standard 250-ml blood bag containing citrate-phosphate-dextrose-adenine anticoagulant (Terumo, Shibuya-ku, Tokyo, Japan).
(§2) Buffy coat cells were obtained from UCB samples by centrifugation (700×g for 20 min), and were diluted with an equal volume of wash buffer (Dulbecco's phosphate buffered saline (D-PBS, Sigma, St. Louis, Mo.) contain 2 mM EDTA (Sigma)). Then the Buffy coat cells were layered onto Ficoll-Paque (ρ=1.077 g/ml, Amersham Biosciences, Uppsala, Sweden) density gradients to deplete red blood cells (RBC) (700×g for 40 min). The mononuclear cell (MNC) interface was collected, diluted into four volumes of wash buffer, and centrifuged to pellet the cells (700×g for 10 min). The MNC pellet was washed twice and resuspended in MACS buffer (D-PBS contained 0.5% bovine serum albumin (BSA, Sigma) and 2 mM EDTA) for CD133<+> cell purification. CD133<+> cord blood cells were isolated using the Miltenyi VarioMACS device (Miltenyi Biotec, Bergisch Gladbach, Germany), according to the manufacturer's instruction. Briefly, UCB MNC were incubated for 30 min at 4° C. with human IgG to block the Fc receptors and mouse monoclonal antibody to human CD133 microbead (Miltenyi Biotec). Labeled cells were applied to magnetic column (LS column, Miltenyi Biotec). Then, unbound cells were washed out, and CD133<+> cells were eluted from the column with MACS buffer. To improve the purity of the CD133+ (or CD34<+>) cells, a secondary purification cycle was performed with the same way. Then the cells were sampled for CD34<+> analysis to determine yield, purity and viability and assayed for colony-forming cells (CFC) as day 0 for control. To expand cells, CD133<+> cells were seeded at a concentration of 5×10^4 cells/ml in 24-well plate (1 ml per well, Falcon, N.J.) with variable serum substitutes, cytokines and medium according to experiment design. After 7 days, the cells were analyzed to compare with the day 0 control (all experiments were repeated at least four times).
(§3) Two-level factorial design followed the method of steepest ascent was carried out to find the optimal concentration of serum substitutes and cytokines for CD34<+> cells expansion. Fractional and full factorial design data were regressed by SPSS software (SPSS Inc. In: SPSS for Windows, base system user's guide. Release 6.0. Chicago, Ill.: SPSS Inc.; 1993. p. 235-47) to obtain the first order polynomial. Its statistical significance was determined by an F-test and the significance of the regression coefficients was analyzed by a t-test. The polynomial takes the form of White blood cell or CD34<+> cell (cells/ml)=β0+βiXi (1) where β's are the regression constants and X's are coded variables for the tested additives.

[1] = tested on: CD34<+> hematopoietic cells; assay: Ex vivo expansion culture of UCB CD133+/CD34+ cells, CD34+ cell growth by flow cytometry (cell density at day 7); type: cell-based, human; details: for regression coefficient of first-order model, Eq. (7): from Table 7, IMDM containing TISF; for regression coefficient of first-order model, Eq. (9): from Table 8, cytokine-containing medium; for effect on CD34<+> cell growth/expansion: per Eq. (3), serum-containing IMDM; for regression coefficient of first-order model, Eq. (5): from Table 5, +1 = 10 ng/ml
Method: as §1, §2
Cells before and after expanding culture were analyzed by two-color flow cytometry on a FACSCaliber analyzer (Becton-Dickinson, NJ, USA). About 1×10^6 cells were stained with FITC-conjugated anti-human CD45 and Peconjugated anti-human CD34, and gated for CD45<+>CD34<+> cells with low side scatter, according to the CD34 enumeration protocols developed by the International Society of Hematotherapy and Graft Engineering (ISHAGE) (Sutherland Dr, et al, J Hematother 1996; 5:231-8). A replicate sample was stained with FITC-antiCD45 and PE-mouse IgG1 as an isotype control to ensure specificity.
as §3

[2] = per Eqs. (6) and (7), serum substitutes in IMDM containing TISF
[3] = per Eqs. (8) and (9), serum substitutes in serum-free medium
[4] = 2^9−5 fractional factorial design in IMDM containing BIT2 (data not shown)
[5] = per Eqs. (10) and (11), serum-free IMDM + BIT2
[6] = per Eqs. (4) and (5), serum-containing medium

## C[C@]12CCC(=O)C=C1CC[C@@H]1[C@@H]2[C@@H](O)C[C@@]2(C)[C@H]1CC[C@]2(O)C(=O)CO [HC, hydrocortisone, reference compound]
WBC
  regression coefficient of first-order model, Eq. (6): 0.5 10^5 WBC cells/ml

## OCCS [Trial 2-ME, 2-mercaptoethanol]
WBC
  regression coefficient of first-order model, Eq. (6): 0.875 10^5 WBC cells/ml
  regression coefficient of first-order model, Eq. (8): 0.069 10^6 WBC cells/ml
[1]
  regression coefficient of first-order model, Eq. (7): 0.311 10^5 CD34<+> cells/ml
  regression coefficient of first-order model, Eq. (9): 0.025 10^6 CD34<+> cells/ml
[1]; [2]
  effect on WBC and CD34<+> cell growth: can stimulate both WBC and CD34<+> cell growth
[1]; [3]
  effect on WBC and CD34<+> cell growth: could promote WBC and CD34<+> cell growth instead of serum

## IL-6: recombinant human interleukin-6, purchased from R&D systems
[1]; [4]
  effect on WBC and CD34<+> cell growth: could facilitate WBC and CD34<+> cell growth
[1]
  effect on CD34<+> cell growth/expansion: less positive effects than TPO, IL-3, SCF and FL
[1]; [5]
  effect on WBC and CD34<+> cell growth: positively affected WBC and CD34<+> cell growth

## Transferrin [TF]
WBC
  regression coefficient of first-order model, Eq. (8): 0.7 10^6 WBC cells/ml
[1]
  regression coefficient of first-order model, Eq. (7): 0.120 10^5 CD34<+> cells/ml
  regression coefficient of first-order model, Eq. (9): 0.303 10^6 CD34<+> cells/ml
[1]; [2]
  effect on WBC and CD34<+> cell growth: can stimulate both WBC and CD34<+> cell growth
[1]; [3]
  effect on WBC and CD34<+> cell growth: could promote WBC and CD34<+> cell growth instead of serum

## bovine serum albumin [BSA]
WBC
  regression coefficient of first-order model, Eq. (6): 2.625 10^5 WBC cells/ml
  regression coefficient of first-order model, Eq. (8): 0.362 10^6 WBC cells/ml
[1]
  regression coefficient of first-order model, Eq. (7): 0.945 10^5 CD34<+> cells/ml
  regression coefficient of first-order model, Eq. (9): 0.302 10^6 CD34<+> cells/ml
[1]; [2]
  effect on WBC and CD34<+> cell growth: can stimulate both WBC and CD34<+> cell growth
[1]; [3]
  effect on WBC and CD34<+> cell growth: could promote WBC and CD34<+> cell growth instead of serum

## granulocyte-macrophage colony-stimulating factor [GM-CSF]
WBC
  effect on WBC growth: positive
[1]; [4]
  effect on WBC and CD34<+> cell growth: could facilitate WBC and CD34<+> cell growth
[1]
  effect on CD34<+> cell growth/expansion: negative
[1]; [5]
  effect on WBC and CD34<+> cell growth: positively affected WBC and CD34<+> cell growth

## insulin
WBC
  regression coefficient of first-order model, Eq. (6): 1.250 10^5 WBC cells/ml
  regression coefficient of first-order model, Eq. (8): 0.131 10^6 WBC cells/ml
[1]
  regression coefficient of first-order model, Eq. (7): 0.231 10^5 CD34<+> cells/ml
  regression coefficient of first-order model, Eq. (9): 0.053 10^6 CD34<+> cells/ml
[1]; [2]
  effect on WBC and CD34<+> cell growth: can stimulate both WBC and CD34<+> cell growth
[1]; [3]
  effect on WBC and CD34<+> cell growth: could promote WBC and CD34<+> cell growth instead of serum

## stem cell factor [SCF]
WBC
  regression coefficient of first-order model, Eq. (4): 0.387 10^6 WBC cells/ml
  effect on WBC growth: stronger effects than the other cytokines
[1]; [4]
  effect on WBC and CD34<+> cell growth: could facilitate WBC and CD34<+> cell growth
[1]; serum-containing medium
  regression coefficient of first-order model, Eq. (5): 0.162 10^6 CD34<+> cells/ml
[1]
  effect on CD34<+> cell growth/expansion: can stimulate CD34<+> cell expansion
[1]; [6]
  effect on WBC and CD34<+> cell growth: facilitated WBC and CD34<+> cell growth
[1]; [5]
  effect on WBC and CD34<+> cell growth: positively affected WBC and CD34<+> cell growth

## thrombopoietin [TPO]
WBC
  regression coefficient of first-order model, Eq. (4): 0.413 10^6 WBC cells/ml
  effect on WBC growth: stronger effects than the other cytokines
[1]; [4]
  effect on WBC and CD34<+> cell growth: could facilitate WBC and CD34<+> cell growth
[1]; serum-containing medium
  regression coefficient of first-order model, Eq. (5): 0.172 10^6 CD34<+> cells/ml
[1]
  effect on CD34<+> cell growth/expansion: can stimulate CD34<+> cell expansion
[1]; [6]
  effect on WBC and CD34<+> cell growth: facilitated WBC and CD34<+> cell growth
[1]; [5]
  effect on WBC and CD34<+> cell growth: positively affected WBC and CD34<+> cell growth

B1: IL-6 sR: IL-6 sR (soluble receptor), purchased from R&D systems (protein, UniProt P08887 20-365, looked up)
extracellular domain: LAPRRCPAQEVARGVLTSLPGDSVTLTCPGVEPEDNATVHWVLRKPAAGSHPSRWAGMGRRLLLRSVQLHDSGNYSCYRAGRPAGTVHLLVDVPPEEPQLSCFRKSPLSNVVCEWGPRSTPSLTTKAVLLVRKFQNSPAEDFQEPCQYSQESQKFSCQLAVPEGDSSFYIVSMCVASSVGSKFSKTQTFQGCGILQPDPPANITVTAVARNPRWLSVTWQDPHSWNSSFYRLRFELRYRAERSKTFTTWMVKDLQHHCVIHDAWSGLRHVVQLRAQEEFGQGEWSEWSPEAMGTPWTESRSPPAENEVSTPMQALTTNKDDDNILFRDSANATSLPVQDSSSVPLP
modifications: extracellular domain
notes: IL-6 sR (soluble receptor), purchased from R&D systems
WBC
  effect on WBC growth: inhibited WBC growth

B2: granulocyte colonystimulating factor (protein, UniProt P09919 31-207, looked up)
Granulocyte …: TPLGPASSLPQSFLLKCLEQVRKIQGDGAALQEKLVSECATYKLCHPEELVLLGHSLGIPWAPLSSCPSQALQLAGCLSQLHSGLFLYQGLLQALEGISPELGPTLDTLQLDVADFATTIWQQMEELGMAPALQPTQGAMPAFASAFQRRAGGVLVASHLQSFLEVSYRVLRHLAQP
notes: recombinant human growth factor
[1]; [4]
  effect on WBC and CD34<+> cell growth: could facilitate WBC and CD34<+> cell growth
[1]
  effect on CD34<+> cell growth/expansion: less positive effects than TPO, IL-3, SCF and FL
[1]; [5]
  effect on WBC and CD34<+> cell growth: positively affected WBC and CD34<+> cell growth

B3: Flt-3 ligand (protein, UniProt P49771 27-235, looked up)
Fms-related tyrosine kinase 3 …: TQDCSFQHSPISSDFAVKIRELSDYLLQDYPVTVASNLQDEELCGGLWRLVLAQRWMERLKTVAGSKMQGLLERVNTEIHFVTKCAFQPPPSCLRFVQTNISRLLQETSEQLVALKPWITRQNFSRCLELQCQPDSSTLPPPWSPRPLEATAPTAPQPPLLLLLLLPVGLLLLAAAWCLHWQRTRRRTPRPGEQVPPVPSPQDLLLVEH
notes: as for B2
WBC
  regression coefficient of first-order model, Eq. (4): 0.237 10^6 WBC cells/ml
  effect on WBC growth: stronger effects than the other cytokines
[1]; [4]
  effect on WBC and CD34<+> cell growth: could facilitate WBC and CD34<+> cell growth
[1]; serum-containing medium
  regression coefficient of first-order model, Eq. (5): 0.110 10^6 CD34<+> cells/ml
[1]
  effect on CD34<+> cell growth/expansion: can stimulate CD34<+> cell expansion
[1]; [6]
  effect on WBC and CD34<+> cell growth: facilitated WBC and CD34<+> cell growth
[1]; [5]
  effect on WBC and CD34<+> cell growth: positively affected WBC and CD34<+> cell growth
